Data reported in patent US12497408B2, “Tetracyclic compounds and methods for the treatment of Zika virus infection” (priority 2021, dated 2025).
pEC50: −log10 of the molar value.

The compounds below were run on ZIKV (assay: ZIKV reporter virus-based antiviral screening on Huh7 cells). Settings: Zika virus, Huh-7, 48 h, Huh7 cells infected with recombinant luciferase reporter ZIKV (MOI about 0.1), luciferase signal.
Type: cell-based, Zika virus
Summary of the method: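 Huh7 cells in 2% FBS assay medium infected at MOI about 0.1 with Renilla or Nano luciferase ZIKV premixed with nine-point compound dilutions, 48 hrs at 37° C. Luciferase signal normalized to DMSO controls as 100%; viability optionally by CellTiter-Glo with Rlu virus.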

Structure (SMILES) | pEC50
CC[C@H](C)[C@H](NC(=O)OC)C(=O)N1CCC[C@@]1(C)c1nc(Cl)c(-c2cc3c4c(c2)OCc2cc(-c5[nH]c([C@]6(C)CCCN6C(=O)[C@@H](NC(=O)OC)[C@@H](C)CC)nc5Cl)cc(c2-4)OC3)[nH]1 [Compound 66, dimethyl ((2S,2′S,3S,3′S)-((2S,2′S)-((5,10-dihydrochromeno[5,4,3-cde]chromene-2,7-diyl)bis(4-chloro-1H-imidazole-5,2-diyl))bis(2-methylpyrrolidine-2,1-diyl))bis(3-methyl-1-oxopentane-1,2-diyl))dicarbamate] | 7.36
COC(=O)N[C@H](C(=O)N[C@H](c1nc(Cl)c(-c2cc3c4c(c2)OCc2cc(-c5[nH]c([C@@H](NC(=O)[C@@H](NC(=O)OC)C(C)C)C(C)(C)C)nc5Cl)cc(c2-4)OC3)[nH]1)C(C)(C)C)C(C)C [Compound 20, dimethyl ((2S,2′S)-(((1S,1′S)-((5,10-dihydrochromeno[5,4,3-cde]chromene-2,7-diyl)bis(4-chloro-1H-imidazole-5,2-diyl))bis(2,2-dimethylpropane-1,1-diyl))bis(azanediyl))bis(3-methyl-1-oxobutane-1,2-diyl))dicarbamate] | < 6.43
COC(=O)N[C@H](C(=O)N1[C@@H]2C[C@@H]2C[C@H]1c1nc(Cl)c(-c2cc3c4c(c2)OCc2cc(-c5[nH]c([C@@H]6C[C@H]7C[C@H]7N6C(=O)[C@@H](NC(=O)OC)C(C)C)nc5Cl)cc(c2-4)OC3)[nH]1)C(C)C [Compound 46, dimethyl ((2S,2′S)-((1R,1′R,3S,3′S,5R,5′R)-((5,10-dihydrochromeno[5,4,3-cde]chromene-2,7-diyl)bis(4-chloro-1H-imidazole-5,2-diyl))bis(2-azabicyclo[3.1.0]hexane-3,2-diyl))bis(3-methyl-1-oxobutane-1,2-diyl))dicarbamate] | 8.30
COC(=O)N[C@H](C(=O)N1[C@H](c2nc(Cl)c(-c3cc4c5c(c3)OCc3cc(-c6[nH]c([C@@H]7C[C@@H]8CCC[C@@H]8N7C(=O)[C@@H](NC(=O)OC)C(C)(C)C(F)(F)F)nc6Cl)cc(c3-5)OC4)[nH]2)C[C@@H]2CCC[C@@H]21)C(C)(C)C(F)(F)F [Compound 35, dimethyl ((2S,2′S)-((2S,2′S,3aS,3a′S,6aS,6a′S)-((5,10-dihydrochromeno[5,4,3-cde]chromene-2,7-diyl)bis(4-chloro-1H-imidazole-5,2-diyl))bis(hexahydrocyclopenta[b]pyrrole-2,1(2H)-diyl))bis(4,4,4-trifluoro-3,3-dimethyl-1-oxobutane-1,2-diyl))dicarbamate] | 8.35
CC[C@H](C)[C@H](NC(=O)OC)C(=O)N1C[C@@H](C)C[C@H]1c1nc(Cl)c(-c2cc3c4c(c2)OCc2cc(-c5[nH]c([C@@H]6C[C@H](C)CN6C(=O)[C@@H](NC(=O)OC)[C@@H](C)CC)nc5Cl)cc(c2-4)OC3)[nH]1 [Compound 68, dimethyl ((2S,2′S,3S,3′S)-((3S,3′S,5S,5′S)-((5,10-dihydrochromeno[5,4,3-cde]chromene-2,7-diyl)bis(4-chloro-1H-imidazole-5,2-diyl))bis(3-methylpyrrolidine-5,1-diyl))bis(3-methyl-1-oxopentane-1,2-diyl))dicarbamate] | 8.00
C=C(C)c1nc([C@@H]2C[C@H](C)CN2C(=O)[C@@H](NC(=O)OC)C(C)C)[nH]c1-c1cc2c3c(c1)OCc1cc(-c4[nH]c([C@@H]5C[C@H](C)CN5C(=O)[C@@H](NC(=O)OC)C(C)C)nc4C(=C)C)cc(c1-3)OC2 [Compound 71, dimethyl ((2S,2′S)-((3S,3′S,5S,5′S)-((5,10-dihydrochromeno[5,4,3-cde]chromene-2,7-diyl)bis(4-(prop-1-en-2-yl)-1H-imidazole-5,2-diyl))bis(3-methylpyrrolidine-5,1-diyl))bis(3-methyl-1-oxobutane-1,2-diyl))dicarbamate] | 7.44
CC[C@H](C)[C@H](NC(=O)OC)C(=O)N1CC(F)(F)C[C@H]1c1nc(Cl)c(-c2cc3c4c(c2)OCc2cc(-c5[nH]c([C@@H]6CC(F)(F)CN6C(=O)[C@@H](NC(=O)OC)[C@@H](C)CC)nc5Cl)cc(c2-4)OC3)[nH]1 [Compound 57, dimethyl ((2S,2′S,3S,3′S)-((5S,5′S)-((5,10-dihydrochromeno[5,4,3-cde]chromene-2,7-diyl)bis(4-chloro-1H-imidazole-5,2-diyl))bis(3,3-difluoropyrrolidine-5,1-diyl))bis(3-methyl-1-oxopentane-1,2-diyl))dicarbamate] | 8.34
COC(=O)N[C@H](C(=O)N1[C@H](c2ncc(-c3cc4c5c(c3)OCc3cc(-c6[nH]c([C@@H]7C[C@@H]8CCC[C@@H]8N7C(=O)[C@@H](NC(=O)OC)C(C)C)nc6Cl)cc(c3-5)OC4)[nH]2)C[C@@H]2CCC[C@@H]21)C(C)C [Compound 30, methyl ((S)-1-((2S,3aS,6aS)-2-(4-chloro-5-(7-(2-((2S,3aS,6aS)-1-((methoxycarbonyl)-L-valyl)octahydrocyclopenta[b]pyrrol-2-yl)-1H-imidazol-5-yl)-5,10-dihydrochromeno[5,4,3-cde]chromen-2-yl)-1H-imidazol-2-yl)hexahydrocyclopenta[b]pyrrol-1(2H)-yl)-3-methyl-1-oxobutan-2-yl)carbamate] | 8.10
COC(=O)N[C@H](C(=O)N1CCC[C@H]1c1nc(Cl)c(-c2cc3c4c(c2)OCc2cc(-c5[nH]c([C@@H]6CCCN6C(=O)[C@@H](NC(=O)OC)C(C)(C)C)nc5Cl)cc(c2-4)OC3)[nH]1)C(C)(C)C [Compound 26, dimethyl ((2S,2′S)-((2S,2′S)-((5,10-dihydrochromeno[5,4,3-cde]chromene-2,7-diyl)bis(4-chloro-1H-imidazole-5,2-diyl))bis(pyrrolidine-2,1-diyl))bis(3,3-dimethyl-1-oxobutane-1,2-diyl))dicarbamate] | 8.80
COC(=O)N[C@H](C(=O)N1[C@H](c2nc(Cl)c(-c3cc4c5c(c3)OCc3cc(-c6[nH]c([C@@H]7C[C@@H]8C[C@@H]8N7C(=O)[C@@H](NC(=O)OC)C(C)C)nc6Cl)cc(c3-5)OC4)[nH]2)C[C@@H]2C[C@@H]21)C(C)C [Compound 10, dimethyl ((2S,2′S)-((1S,1′S,3S,3′S,5S,5′S)-((5,10-dihydrochromeno[5,4,3-cde]chromene-2,7-diyl)bis(4-chloro-1H-imidazole-5,2-diyl))bis(2-azabicyclo[3.1.0]hexane-3,2-diyl))bis(3-methyl-1-oxobutane-1,2-diyl))dicarbamate] | 8.15
CC[C@H](C)[C@H](NC(=O)OC)C(=O)N1CC2(CC2)C[C@H]1c1nc(Cl)c(-c2cc3c4c(c2)OCc2cc(-c5[nH]c([C@@H]6CC7(CC7)CN6C(=O)[C@@H](NC(=O)OC)[C@@H](C)CC)nc5Cl)cc(c2-4)OC3)[nH]1 [Compound 60, dimethyl ((2S,2′S,3S,3′S)-((6S,6′S)-((5,10-dihydrochromeno[5,4,3-cde]chromene-2,7-diyl)bis(4-chloro-1H-imidazole-5,2-diyl))bis(5-azaspiro[2.4]heptane-6,5-diyl))bis(3-methyl-1-oxopentane-1,2-diyl))dicarbamate] | 8.77
CC[C@H](C)[C@H](NC(=O)OC)C(=O)N1CC2(CC2)C[C@H]1c1nc(Cl)c(-c2cc3c4c(c2)OCc2cc(-c5[nH]c([C@@H]6CC7(CC7)CN6C(=O)[C@@H](NC(=O)OC)[C@@H](C)CC)nc5C(C)C)cc(c2-4)OC3)[nH]1 [Compound 16, methyl ((2S,3S)-1-((S)-6-(5-(7-(4-chloro-2-((S)-5-((methoxycarbonyl)-L-isoleucyl)-5-azaspiro[2.4]heptan-6-yl)-1H-imidazol-5-yl)-5,10-dihydrochromeno[5,4,3-cde]chromen-2-yl)-4-isopropyl-1H-imidazol-2-yl)-5-azaspiro[2.4]heptan-5-yl)-3-methyl-1-oxopentan-2-yl)carbamate] | 8.64
CC[C@H](C)[C@H](NC(=O)OC)C(=O)N1CCC[C@H]1c1nc(Br)c(-c2cc3c4c(c2)OCc2cc(-c5[nH]c([C@@H]6CCCN6C(=O)[C@@H](NC(=O)OC)[C@@H](C)CC)nc5Br)cc(c2-4)OC3)[nH]1 [Compound 24, dimethyl ((2S,2′S,3S,3′S)-((2S,2′S)-((5,10-dihydrochromeno[5,4,3-cde]chromene-2,7-diyl)bis(4-bromo-1H-imidazole-5,2-diyl))bis(pyrrolidine-2,1-diyl))bis(3-methyl-1-oxopentane-1,2-diyl))dicarbamate] | 8.66
COC(=O)N[C@H](C(=O)N1C[C@H](F)C[C@H]1c1nc(Cl)c(-c2cc3c4c(c2)OCc2cc(-c5[nH]c([C@@H]6C[C@@H](F)CN6C(=O)[C@@H](NC(=O)OC)C(C)C)nc5Cl)cc(c2-4)OC3)[nH]1)C(C)C [Compound 53, dimethyl ((2S,2′S)-((3R,3′R,5S,5′S)-((5,10-dihydrochromeno[5,4,3-cde]chromene-2,7-diyl)bis(4-chloro-1H-imidazole-5,2-diyl))bis(3-fluoropyrrolidine-5,1-diyl))bis(3-methyl-1-oxobutane-1,2-diyl))dicarbamate] | 8.14
COC(=O)N[C@H](C(=O)N1CC(C)(C)C[C@H]1c1nc(Cl)c(-c2cc3c4c(c2)OCc2cc(-c5[nH]c([C@@H]6CC(C)(C)CN6C(=O)[C@@H](NC(=O)OC)C(C)C)nc5Cl)cc(c2-4)OC3)[nH]1)C(C)C [Compound 7, dimethyl ((2S,2′S)-((5S,5′S)-((5,10-dihydrochromeno[5,4,3-cde]chromene-2,7-diyl)bis(4-chloro-1H-imidazole-5,2-diyl))bis(3,3-dimethylpyrrolidine-5,1-diyl))bis(3-methyl-1-oxobutane-1,2-diyl))dicarbamate] | 8.38
COC(=O)N[C@H](C(=O)N1[C@H](c2nc(Cl)c(-c3cc4c5c(c3)OCc3cc(-c6[nH]c([C@@H]7C[C@@H]8CCC[C@@H]8N7C(=O)[C@@H](NC(=O)OC)C(C)C)nc6Cl)cc(c3-5)OC4)[nH]2)C[C@@H]2CCC[C@@H]21)C(C)C [Compound 29, dimethyl ((2S,2′S)-((2S,2′S,3aS,3a′S,6aS,6a′S)-((5,10-dihydrochromeno[5,4,3-cde]chromene-2,7-diyl)bis(4-chloro-1H-imidazole-5,2-diyl))bis(hexahydrocyclopenta[b]pyrrole-2,1(2H)-diyl))bis(3-methyl-1-oxobutane-1,2-diyl))dicarbamate] | 8.74
